Source: article PMC4545913, “Dual EZH2 and EHMT2 histone methyltransferase inhibition increases biological efficacy in breast cancer cells” (Clinical Epigenetics, 2015)

Tests used:
Type in all cases: cell-based
[1] = system: H3K27me3 and H3K9me3 at target genes; experiment: Chromatin immunoprecipitation (ChIP-PCR) in MDA-MB-231 cells; conditions: MDA-MB-231, 2.5 μM, 24 h
Source text: Fig. 3 Effects of hit compounds on RNA levels and histone marks. a Sybr green real-time PCR mRNA level measurement of EZH2 target genes and executing enzymes following a 48-h compound treatment at different concentrations of MDA-MB-231 cells. Measurements marked with an ‘*’ are below detection limit, most likely due to cell death. […] Error bars represent the mean ± SD of experiment performed in technical triplicate. b Sybr green real-time PCR measurement of the FBXO32 transcription start site and KRT17 promoter region following chromatin immunoprecipitation, using antibodies to the histone marks shown, of MDA-MB-231 cells treated with three selected compounds at 5 μM for 72 h. […] The fold difference to the untreated sample is shown. Each IP-value has been determined as the relative increase to the no-antibody control and then normalised to GAPDH levels
Fig. 4 Compound-induced upregulation of EZH2-repressed target genes. a Enrichment scores for differential expression of EZH2 targets on treatment with panel of compounds. […] Each IP-value has been determined as the relative increase to the no-antibody control and is shown as fold difference relative to the untreated control. d Western blot showing levels of modified histones, following a 48-h treatment with HKMTI-1-005 at different doses. […]

[2] = system: MDA-MB-231 cells; experiment: Caspase 3/7 activity (apoptosis); conditions: MDA-MB-231, dose-dependent (Figure S2)
[3] = system: MCF10a; experiment: MTT cell viability assay, normal breast epithelial cell line; conditions: Homo sapiens, MCF-10A, read-out: Cell growth IC50 MCF10a
Experimental: (§1) For clonogenic assays, cells were treated with compound for 48 h, media were removed and replaced with fresh media for a further 12 days to measure colony formation. For cell viability assays, lymphoma cells were plated at 20,000 cells in 200 μl per well in U-bottom 96 well plates in RPMI medium +20 % FCS. Cells were re-suspended 48 h later, diluted 10-fold in PBS + propidium iodide (PI) and the concentration of PI negative cells was counted using an Attune flow cytometer with autosampler. Breast cancer cells were seeded at a density of 10,000 cells/well in a sterile 96 clear-well plate with 150 μl of DMEM (+10 % FCS and 2 mM L-Glutamine). Each compound treatment was performed in triplicate for 72 h at concentrations of 100 nM and 1, 5, 10 and 50 μM in 100 μl of full-medium. After 72 h, 20 μl of MTT solution (3 mg of MTT Formazan, Sigma/1 ml PBS) was added to the medium and incubated for 4 h at 37 °C in a CO2 incubator. The MTT-product was solubilised with 100 μl DMSO, and for 1 h, incubated in the dark at room temperature. The optical density was read at 570 nm with PHERAstar.

[4] = system: SPINK1; experiment: qRT-PCR of SPINK1 mRNA in MDA-MB-231 cells; conditions: MDA-MB-231, multiple doses and time points
Experimental: Following compound treatment of MDA-MB-231 for 48 h (in 6-well plates), media was removed and 1.5 ml of TRIzol (Invitrogen) was added directly to lyse cells and RNA was isolated according to the manufacturer’s instructions. Reverse transcription was done using the SuperScript III First-Strand Synthesis System (Invitrogen) according to the manufacturer’s instructions. Each measurement was done in triplicate, and the List of Primers can be found in Additional file 2: Table S1. For normalisation, we have used GAPDH and RNA pol II. Experiments were also done with the ‘Fast Sybr Green Cell-to-CT™-Kit’ according to the manufacturer’s instructions (Applied Biosystem). Fifteen thousand cells per 96 well were plated, and after 24 h, treated with compounds at various concentrations.
For qRT-PCR measurements the 2x iQ SYBR Green Supermix (Bio-Rad), 200nM Primers and 0.4μl of cDNA /per 20μl reaction was used. The measurement was done in low-white 96-well plates (Bio-Rad) on a CFX96 Real-time System/C1000 Thermal Cycler (Bio-Rad) with the following protocol: 95°C for 3’; 95°C for 10’’, 56°C for 10’’, 72°C for 30’’ 42 cycles followed by a melting curve from 72°C to 95°C.

[5] = system: SUDLH8; experiment: Lymphoma cell growth, cell counting following propidium iodide staining; conditions: EZH2 W.T. (amplified), 48 h, PI negative cell count
Experimental: as §1

[6] = system: WSU-FSCLL; experiment: as above; conditions: EZH2 W.T., 48 h, PI negative cell count
Experimental: as §1

[7] = system: SC1; experiment: as above; conditions: Homo sapiens, SC-1, EZH2 W.T., 48 h, PI negative cell count
Experimental: as §1

[8] = system: DB; experiment: as above; conditions: Homo sapiens, EZH2 Mutant Y646N, 48 h, PI negative cell count
Experimental: as §1

[9] = system: WILL1; experiment: as above; conditions: WILL-1, EZH2 W.T., 48 h, PI negative cell count
Experimental: as §1

[10] = system: DOHH2; experiment: as above; conditions: Homo sapiens, DOHH-2, EZH2 W.T., 48 h, PI negative cell count
Experimental: as §1

`COc1cc2nc(N3CCN(C)CC3)nc(NC3CCN(Cc4ccccc4)CC3)c2cc1OC` [HKMTI-1-005] was tested, and the “H3K27me3 and H3K9me3 at the SPINK1 transcription start site (ChIP-PCR)” value [1] was “reduction in both H3K27me3 and H3K9me3”, the “Induction of apoptosis measured by Caspase 3/7 activity” value [2] was “induces apoptosis” and the IC50 [3] was greater than 15 µM. For the same molecule, the “SPINK1 expression upon treatment” value [4] was “increased”, the IC50 [5] was less than 1 µM and the IC50 [6] was 3.41 µM. It also gave an IC50 [7] of 3.71 µM, an IC50 [8] of less than 1 µM and an IC50 [9] of 5.6 µM. The IC50 [10] was 3.26 µM.
